Experimental data reported in article PMC8725448 (Journal of Cannabis Research, 2022).
Entries after “also recorded” stand apart in the source; their conditions may differ. Where two headings read alike, the source gives them in different places.

Experiments:
[1] = Pharmacokinetic analysis in mouse plasma and brain after i.p. injection; assay type: in vivo; conditions: for Kp: brain/plasma; for Kp / Cmax / AUC / Tmax / half-life: 10 mg/kg, mouse; for Kp / Cmax: i.p.
Description: Wildtype mice (postnatal day 21-28, P21-28) received an i.p. injection of 10 mg/kg CBGA methyl ester or olivetolic acid. At selected time points (15–120 min) mice were anesthetized with isoflurane, whole blood was collected by cardiac puncture and brains were harvested. The plasma was isolated by centrifugation and samples were stored at −80°C until assayed. Concentrations in the plasma and brain samples at each time point were averaged, and pharmacokinetic parameters were calculated by noncompartmental analysis as previously described (Hawkins et al. [2017]).
(§1) The plasma and brain samples were prepared for LC-MS/MS analysis as previously described (Anderson et al. [2019b], [2020]). Briefly, acetonitrile was used to precipitate proteins and extract CBGA methyl ester and olivetolic acid from the biological matrices. The brain samples were additionally filtered through Amicon Ultracel 3K (Merck-Millipore; Burlington, USA) filtration devices. The plasma and brain samples underwent supported-liquid extraction with methyl tert-butyl ether using Biotage Isolute SLE+ columns (Uppsala, SWE) and were then evaporated to dryness with N2. Residues were reconstituted in actetonitrile and 0.1% formic acid in water (1:1, v/v) for analysis using a Shimadzu Nexera ultra-HPLC coupled to a Shimadzu 8030 triple quadrupole mass spectrometer (Shimadzu Corp.; Kyoto, JPN). The mass spectrometer was operated in positive electrospray ionization mode for CBGA methyl ester and negative electrospray ionization mode for olivetolic acid with multiple reaction monitoring and the following mass transition pairs (m/z): 375.20 > 343.25, 375.20 > 219.10 and 375.20 > 251.15 (CBGA-methylester) and 223.25 > 179.25 (olivetolic acid). Quantification of analytes in the plasma and brain samples was achieved by comparing samples to standards prepared with known amounts of compound.

[2] = target: T1, CaV3.2 (Homo sapiens, UniProt O95180); assay: Measurement of intracellular calcium, CaV3.2; assay type: cell-based; conditions: 10 μM; HEK293 cells expressing human CaV3.2
T1 construct: expressed in transfected cells; host or cells: Flp-In T-REx HEK (tetracycline-induced)
Description: Changes in intracellular calcium concentrations were measured in Flp-In™ T-REx™ HEK stably expressing either CaV3.1, CaV3.2, or CaV3.3 using Calcium 5 dye (Molecular Devices; Sunnyvale, USA) as previously described (Bladen et al. [2021]). Briefly, cells (120,000/well) were plated into a black, clear-bottomed poly-D-lysine coated, 96-well plate in the presence of 2 μg/mL tetracycline to induce channel expression and incubated overnight at 37°C in ambient CO2. Calcium 5 dye was diluted in HEPES-buffered low potassium Hanks Balanced Salt Solution (HBSS) at 50% of manufacturer’s recommendation. Dye solution containing probenecid (2.5 mM) was added and incubated for 60 min at 37°C in ambient CO2. Compounds were prepared as stock solutions in DMSO and diluted in HBSS with 0.01% bovine serum albumin. Compounds were applied for 5 min, then 10 mM CaCl2 was added. A FlexStation 3 Microplate reader (Molecular Devices; San Jose, USA) was used to take fluorescence readings every 2 s (excitation 485 nm, emission 525 nm). Baseline recordings were taken as the average fluorescence over 20 s preceding CaCl2 addition. Changes in fluorescence were measured as the maximal increase in fluorescence from baseline following CaCl2 addition and normalized to the response of vehicle. […]

[3] = Plasma concentrations in experimental Scn1a+/- mice after hyperthermia protocol; assay type: in vivo, mouse
Description: as §1
Hyperthermia-induced seizure experiments were conducted on male and female Scn1a^+/- mice at P14-16 as previously described (Hawkins et al. [2017]). No significant sex differences were observed so males and females were combined across groups. Briefly, for CBGA methyl ester experimental animals a RET-3 rectal temperature probe was inserted 30 min after i.p. injections of vehicle or CBGA methyl ester. Mice acclimated to the probe for 5 min before hyperthermia protocol began. Olivetolic acid experimental animals acclimated to the rectal temperature probe for 5 min then received an i.p. injection of vehicle or olivetolic acid immediately before the hyperthermia protocol was initiated. Mouse core body temperature was elevated 0.5°C every 2 min until the onset of first clonic convulsion with loss of posture or until 42.5°C was reached. The dose range (10, 30, or 100 mg/kg) was chosen to provide a point of direct comparison to CBGA, which is anticonvulsant at 30 and 100 mg/kg. Seizure threshold temperatures were compared in GraphPad Prism 8.2 (LaJolla, USA) using Mantel-Cox logrank test and p < 0.05 was considered statistically significant. Following the hyperthermia-induced seizure protocol, the plasma samples were isolated as described for the pharmacokinetic analysis from a cohort of experimental mice.

[4] = target: T2, human GPR55 (Homo sapiens, UniProt Q9Y2T6); assay: GPR55 pERK assay (AlphaScreen SureFire Phospho-ERK1/2); assay type: cell-based; conditions: 10 μM; LPI at EC80; HEK293 cells expressing human GPR55
T2 construct: expressed in transfected cells; host or cells: HEK293
Description: ERK phosphorylation (pERK) was detected using the AlphaScreen® SureFire® Phospho-ERK1/2 assay (Perkin Elmer; Waltham, USA) as previously described (Anderson et al. [2021b]). Briefly, the human embryonic kidney (HEK) 293 cells stably expressing human GPR55 in L-15 media were plated (110,000/well) into a Corning CellBIND (Corning Inc; Corning, USA) clear, flat-bottomed 96-well plate and incubated 20–24 h at 37°C in ambient CO2. Media was aspirated, 50 μL phenol red-free DMEM/F-12 was added to each well and incubated for 2–3 h at 37°C in a humidified 5% CO2 atmosphere. Compounds (10 μM in phenol red-free DMEM/F-12) were added and incubated for 20 min before media was aspirated and lysis buffer was added. Lysates (5 μL) were incubated with reaction mixture (7 μL) for 3.5 h at room temperature. A CLARIOstar plate reader (BMG Labtech; Offenburg, GER) was used to take fluorescence readings over 740 msec (excitation 680 nm, emission 520–620 nm). Fluorescence readings were normalized to those of 4 μM LPI, the endogenous GPR55 agonist. […] Final DMSO concentrations were ≤ 0.2%. Statistical comparisons were made in GraphPad Prism using one-way ANOVA followed by Dunnett’s post hoc and p < 0.05 was considered statistically significant.

[5] = intraperitoneal, read-out: brain penetration
[6] = ip, from AUC values, read-out: Brain-plasma ratio
[7] = ip, brain, converted from ng/mg brain assuming density of 1 g/mL, read-out: Cmax

T1 sequence (O95180 whole entry): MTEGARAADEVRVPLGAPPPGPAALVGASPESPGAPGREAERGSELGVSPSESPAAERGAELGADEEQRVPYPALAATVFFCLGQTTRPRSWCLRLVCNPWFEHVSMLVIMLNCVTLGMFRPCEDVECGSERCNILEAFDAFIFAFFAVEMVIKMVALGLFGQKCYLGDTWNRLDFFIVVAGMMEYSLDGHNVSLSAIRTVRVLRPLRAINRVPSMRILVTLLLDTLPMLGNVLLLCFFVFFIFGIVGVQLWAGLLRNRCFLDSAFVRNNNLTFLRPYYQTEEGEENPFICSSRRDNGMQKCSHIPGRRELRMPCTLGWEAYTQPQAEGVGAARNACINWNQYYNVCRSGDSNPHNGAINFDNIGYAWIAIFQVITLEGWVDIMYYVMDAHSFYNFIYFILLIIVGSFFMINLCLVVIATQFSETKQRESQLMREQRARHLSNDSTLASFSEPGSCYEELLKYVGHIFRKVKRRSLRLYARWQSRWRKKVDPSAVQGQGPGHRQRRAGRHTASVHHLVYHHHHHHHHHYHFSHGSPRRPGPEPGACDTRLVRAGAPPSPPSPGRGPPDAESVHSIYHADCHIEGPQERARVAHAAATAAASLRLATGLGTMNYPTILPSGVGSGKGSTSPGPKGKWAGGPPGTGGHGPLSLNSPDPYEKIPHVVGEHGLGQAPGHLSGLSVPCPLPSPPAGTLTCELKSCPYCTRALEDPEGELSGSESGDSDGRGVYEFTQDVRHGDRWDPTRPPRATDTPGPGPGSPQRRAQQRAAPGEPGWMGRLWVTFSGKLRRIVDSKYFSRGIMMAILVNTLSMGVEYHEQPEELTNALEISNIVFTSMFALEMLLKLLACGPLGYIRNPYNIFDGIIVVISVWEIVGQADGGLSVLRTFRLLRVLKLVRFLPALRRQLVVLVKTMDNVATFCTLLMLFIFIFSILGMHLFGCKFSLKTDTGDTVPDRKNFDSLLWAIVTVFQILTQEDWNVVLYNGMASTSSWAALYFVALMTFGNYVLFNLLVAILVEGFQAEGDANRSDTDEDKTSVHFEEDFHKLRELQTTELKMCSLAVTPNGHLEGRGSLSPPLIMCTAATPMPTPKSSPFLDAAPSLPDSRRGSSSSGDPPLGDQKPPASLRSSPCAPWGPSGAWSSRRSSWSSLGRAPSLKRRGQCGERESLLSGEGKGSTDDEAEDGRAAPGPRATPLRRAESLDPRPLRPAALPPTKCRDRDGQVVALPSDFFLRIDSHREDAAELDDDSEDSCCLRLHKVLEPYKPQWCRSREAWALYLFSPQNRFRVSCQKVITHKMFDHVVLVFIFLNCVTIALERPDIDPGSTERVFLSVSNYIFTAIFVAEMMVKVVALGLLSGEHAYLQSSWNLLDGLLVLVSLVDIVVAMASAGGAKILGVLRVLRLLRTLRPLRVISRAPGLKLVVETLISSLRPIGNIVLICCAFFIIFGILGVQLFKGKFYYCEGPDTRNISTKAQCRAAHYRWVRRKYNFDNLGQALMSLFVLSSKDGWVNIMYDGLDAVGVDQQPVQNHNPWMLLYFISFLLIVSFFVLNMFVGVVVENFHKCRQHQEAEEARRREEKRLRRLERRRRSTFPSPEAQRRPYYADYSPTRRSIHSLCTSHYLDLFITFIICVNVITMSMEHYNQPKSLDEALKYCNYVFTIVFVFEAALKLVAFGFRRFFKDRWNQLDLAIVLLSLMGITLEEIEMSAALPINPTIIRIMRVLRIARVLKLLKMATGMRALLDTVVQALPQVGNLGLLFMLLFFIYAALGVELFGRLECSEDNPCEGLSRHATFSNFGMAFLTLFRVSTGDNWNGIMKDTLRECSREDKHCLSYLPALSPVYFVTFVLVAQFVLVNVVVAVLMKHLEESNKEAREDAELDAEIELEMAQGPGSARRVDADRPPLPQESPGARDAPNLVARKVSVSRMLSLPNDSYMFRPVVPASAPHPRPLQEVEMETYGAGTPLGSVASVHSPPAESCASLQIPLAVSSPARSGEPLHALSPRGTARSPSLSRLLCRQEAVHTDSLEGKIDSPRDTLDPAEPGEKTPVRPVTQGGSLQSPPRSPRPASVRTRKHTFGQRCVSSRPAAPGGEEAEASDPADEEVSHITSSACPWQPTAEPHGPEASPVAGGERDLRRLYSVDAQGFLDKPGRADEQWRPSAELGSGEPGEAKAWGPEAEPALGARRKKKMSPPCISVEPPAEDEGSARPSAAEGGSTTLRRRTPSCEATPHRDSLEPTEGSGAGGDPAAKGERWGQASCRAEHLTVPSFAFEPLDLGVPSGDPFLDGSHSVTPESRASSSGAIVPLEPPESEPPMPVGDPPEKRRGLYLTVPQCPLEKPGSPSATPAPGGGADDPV
T2 sequence (Q9Y2T6 whole entry): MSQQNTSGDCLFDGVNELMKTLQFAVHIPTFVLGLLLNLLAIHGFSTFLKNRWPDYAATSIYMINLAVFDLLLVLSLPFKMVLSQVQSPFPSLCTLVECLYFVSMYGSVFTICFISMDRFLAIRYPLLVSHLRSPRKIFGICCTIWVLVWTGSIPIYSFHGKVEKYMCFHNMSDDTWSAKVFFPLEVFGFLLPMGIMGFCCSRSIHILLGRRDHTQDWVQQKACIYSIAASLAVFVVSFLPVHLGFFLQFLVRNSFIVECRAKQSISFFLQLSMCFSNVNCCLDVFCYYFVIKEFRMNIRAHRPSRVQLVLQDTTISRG

Row | Compound | Kp [1, 5] | Kp [1, 6] | Cmax ([1]; brain) | Cmax [1, 7] | AUC ([1]; ip, brain) | Tmax ([1]; ip, brain) | Cmax ([1]; ip, plasma, read-out: Cmax) | AUC ([1]; ip, plasma) | Tmax ([1]; ip, plasma) | half-life ([1]; brain, ip) | half-life ([1]; plasma, ip) | inhibition of CaV3.2 (change in intracellular calcium relative to vehicle) [2] | Plasma concentration ([3]; dose 10 mg/kg i.p.) | Plasma concentration ([3]; dose 30 mg/kg i.p.) | Plasma concentration ([3]; dose 100 mg/kg i.p.) | inhibition of GPR55 activity (pERK relative to agonist LPI alone) [4] | improvement of brain-plasma ratio over CBGA ([1]; compared with CBGA of Anderson et al. 2019b)
1 | CCCCCc1cc(O)cc(O)c1C(=O)O [Olivetolic acid] | 0.01 | 0.01 | 0.45 ± 0.06 ng/mg brain | 450 ± 60 ng/mL | 217 ng·h/mL | 15 min | 65000 ± 4000 ng/mL | 18400 ng·h/mL | 15 min | < 15 min | < 15 min | Neither CBGA methyl ester nor olivetolic acid had any effect; also recorded: ineffective | 65000 ± 5000 ng/mL | 89000 ± 12000 ng/mL | 116000 ± 27000 ng/mL | did not inhibit; also recorded: ineffective | –
2 | CCCCCc1cc(O)c(C/C=C(\C)CCC=C(C)C)c(O)c1C(=O)OC [CBGA methyl ester] | 0.13 | 0.13 | – | 210 ± 30 ng/mL | 367 ng·h/mL | 30 min | 1300 ± 300 ng/mL | 2850 ng·h/mL | 45 min | 62 min | 81 min | Neither CBGA methyl ester nor olivetolic acid had any effect; also recorded: no effect | 837 ± 212 ng/mL | 4700 ± 600 ng/mL | 6200 ± 600 ng/mL | did not inhibit; also recorded: no effect | nearly a seven fold improvement
